From patent US20230077362A1 (CORTEVA AGRISCIENCE LLC, priority 2019, published 2023)
Like-named read-outs stand apart in the source and are kept apart here.

Key:
Assay type in all cases: in vivo
[1] = tested on: Beet Armyworm (Spodoptera exigua) ("BAW"), second instar larvae; assay: Bioassay on beet armyworm (BAW), 128-well diet tray assay; conditions: Spodoptera exigua
Summary of the method: (§1)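 After sealing with a clear self-adhesive lid, the trays are incubated at 25° C. with 14 h light and 10 h dark for 5 to 7 days; mortality in each well is recorded as a percentage and averaged across the eight wells.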

[2] = tested on: Cabbage Looper (Trichoplusia ni) ("CL"), second instar larvae; assay: Bioassay on cabbage looper (CL), 128-well diet tray assay; conditions: Trichoplusia ni
Summary of the method: as §1

[3] = tested on: Green Peach Aphid ("GPA") (Myzus persicae), wingless adult and nymph stages; assay: Bioassay on green peach aphid (GPA), foliar spray on infested cabbage seedlings; conditions: Myzus persicae, foliar, 72 h
Summary of the method: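 Cabbage seedlings with 2-3 true leaves, infested one day earlier with 20-50 wingless adult and nymph GPA, sprayed to runoff on both leaf sides; solvent check held 20% acetone/methanol (1:1). Live aphids counted after three days at about 25° C; corrected % control = 100*(X−Y)/X versus solvent check.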

[4] = read-out: BAW (Biological Results, rating)
[5] = read-out: CL (Biological Results, rating)
[6] = read-out: GPA (Biological Results, rating)

| Compound | pest or weed control at 50 µg/cm2 [1, 4] [%] | pest or weed control at 50 µg/cm2 [2, 5] [%] | pest or weed control at 200 µg/mL [3, 6] [%] | pest or weed control at 50 µg/cm2 ([1]; read-out: BAW rating) [%] | pest or weed control at 50 µg/cm2 ([2]; read-out: CL rating) [%] | pest or weed control at 200 µg/mL ([3]; read-out: GPA rating) [%] |
| --- | --- | --- | --- | --- | --- | --- |
| CCOCc1ccc(C)cc1N1C(=O)CS/C1=N\C(=O)Nc1ccc(-c2ncn(-c3ccc(OC(F)(F)F)cc3)n2)cc1F [Compound J180, (Z)-1-(3-(2-(Ethoxymethyl)-5-methylphenyl)-4-oxothiazolidin-2-ylidene)-3-(2-fluoro-4-(1-(4-(trifluoromethoxy)phenyl)-1H-1,2,4-triazol-3-yl)phenyl)urea] | 50 to 100 | 50 to 100 | 0 to 80 | – | – | – |
| Cc1ccc(COCC(F)(F)F)c(N2C(=O)CS/C2=N\C(=O)Nc2ccc(-c3ncn(-c4ccc(OC(F)(F)F)cc4)n3)cc2C)c1 [Compound J139, (Z)-1-(3-(5-Methyl-2-((2,2,2-trifluoroethoxy)methyl)phenyl)-4-oxothiazolidin-2-ylidene)-3-(2-methyl-4-(1-(4-(trifluoromethoxy)phenyl)-1H-1,2,4-triazol-3-yl)phenyl)urea] | 50 to 100 | 50 to 100 | 0 to 80 | – | – | – |
| COC(=O)c1ccc(C(C)C)c(N2C(=O)CS/C2=N\C(=O)Nc2ccc(-c3ncn(-c4ccc(OC(F)(F)F)cc4)n3)cc2F)c1 [Compound J104, Methyl (Z)-3-(2-(((2-fluoro-4-(1-(4-(trifluoromethoxy)phenyl)-1H-1,2,4-triazol-3-yl)phenyl)carbamoyl)imino)-4-oxothiazolidin-3-yl)-4-isopropylbenzoate] | 50 to 100 | 50 to 100 | 0 to 80 | – | – | – |
| Cc1ccc(COCC(F)(F)F)c(N2C(=O)CS/C2=N\C(=O)Nc2ccc(-c3cn(-c4ccc(S(=O)(=O)C(F)(F)F)cc4)cn3)cc2F)c1 [Compound J647, (Z)-1-(2-Fluoro-4-(1-(4-((trifluoromethyl)sulfonyl)phenyl)-1H-imidazol-4-yl)phenyl)-3-(3-(5-methyl-2-((2,2,2-trifluoroethoxy)methyl)phenyl)-4-oxothiazolidin-2-ylidene)urea] | – | – | – | 50 to 100 | 50 to 100 | 0 to 80 |
| CCc1cc(-c2ncn(-c3ccc(OC(F)(F)F)cc3)n2)ccc1NC(=O)/N=C1\SCC(=O)N1c1cc(OC)ccc1C(C)C [Compound J71, (Z)-1-(2-Ethyl-4-(1-(4-(trifluoromethoxy)phenyl)-1H-1,2,4-triazol-3-yl)phenyl)-3-(3-(2-isopropyl-5-methoxyphenyl)-4-oxothiazolidin-2-ylidene)urea] | 50 to 100 | 50 to 100 | 0 to 80 | – | – | – |
| COCOc1cc(-c2ncn(-c3ccc(OC(F)(F)F)cc3)n2)ccc1NC(=O)/N=C1\SCC(=O)N1c1cc(N(C)C)ccc1C(C)C [Compound J172, (Z)-1-(3-(5-(Dimethylamino)-2-isopropylphenyl)-4-oxothiazolidin-2-ylidene)-3-(2-(methoxymethoxy)-4-(1-(4-(trifluoromethoxy)phenyl)-1H-1,2,4-triazol-3-yl)phenyl)urea] | 50 to 100 | 50 to 100 | 0 to 80 | – | – | – |
| Cc1ccc(C(C)C)c(N2C(=O)CS/C2=N\C(=O)Nc2ccc(-c3ncn(-c4ccc(OC(F)(F)F)cc4)n3)cc2C)c1 [Compound J1, (Z)-1-(3-(2-isopropyl-5-methylphenyl)-4-oxothiazolidin-2-ylidene)-3-(2-methyl-4-(1-(4-(trifluoromethoxy)phenyl)-1H-1,2,4-triazol-3-yl)phenyl)urea] | 50 to 100 | 50 to 100 | 0 to 80 | – | – | – |
| Cc1ccc(COCc2ccc(F)cc2)c(N2C(=O)CS/C2=N\C(=O)Nc2ccc(-c3ncn(-c4ccc(OC(F)(F)F)cc4)n3)cc2F)c1 [Compound J574, (Z)-1-(2-Fluoro-4-(1-(4-(trifluoromethoxy)phenyl)-1H-1,2,4-triazol-3-yl)phenyl)-3-(3-(2-(((4-fluorobenzyl)oxy)methyl)-5-methylphenyl)-4-oxothiazolidin-2-ylidene)urea] | – | – | – | 50 to 100 | 50 to 100 | 0 to 80 |
| Cc1ccc(C(C)C)c(N2C(=O)CS/C2=N\C(=O)Nc2ccc(-c3ncn(-c4ccc(OCC#N)cc4)n3)cc2F)c1 [Compound J344, (Z)-1-(4-(1-(4-(Cyanomethoxy)phenyl)-1H-1,2,4-triazol-3-yl)-2-fluorophenyl)-3-(3-(2-isopropyl-5-methylphenyl)-4-oxothiazolidin-2-ylidene)urea] | 50 to 100 | 50 to 100 | 0 to 80 | – | – | – |
| O=C(/N=C1\SCC(=O)N1c1ccccc1COCC(F)(F)F)Nc1ccc(-c2ncn(-c3ccc(OC(F)(F)F)cc3)n2)cc1F [Compound J659, (Z)-1-(2-Fluoro-4-(1-(4-(trifluoromethoxy)phenyl)-1H-1,2,4-triazol-3-yl)phenyl)-3-(4-oxo-3-(2-((2,2,2-trifluoroethoxy)methyl)phenyl)thiazolidin-2-ylidene)urea] | – | – | – | 50 to 100 | 50 to 100 | 0 to 80 |
| Cc1ccc(OCCC(F)(F)F)c(N2C(=O)CS/C2=N\C(=O)Nc2ccc(-c3ncn(-c4cccc(OC(F)(F)F)c4)n3)cc2C)c1 [Compound J138, (Z)-1-(3-(5-Methyl-2-(3,3,3-trifluoropropoxy)phenyl)-4-oxothiazolidin-2-ylidene)-3-(2-methyl-4-(1-(3-(trifluoromethoxy)phenyl)-1H-1,2,4-triazol-3-yl)phenyl)urea] | 50 to 100 | 50 to 100 | 0 to 80 | – | – | – |
| CCNc1ccc(C(C)C)c(N2C(=O)CS/C2=N\C(=O)Nc2ccc(-c3ncn(-c4ccc(OC(F)(F)F)cc4)n3)cc2C)c1 [Compound J127, (Z)-1-(3-(5-(Ethylamino)-2-isopropylphenyl)-4-oxothiazolidin-2-ylidene)-3-(2-methyl-4-(1-(4-(trifluoromethoxy)phenyl)-1H-1,2,4-triazol-3-yl)phenyl)urea] | 50 to 100 | 50 to 100 | 0 to 80 | – | – | – |
| CCc1cc(-c2ncn(-c3ccc(OC(F)(F)F)cc3)n2)ccc1NC(=O)/N=C1\SCC(=O)N1c1cc(C)ccc1C(C)C [Compound J70, (Z)-1-(2-Ethyl-4-(1-(4-(trifluoromethoxy)phenyl)-1H-1,2,4-triazol-3-yl)phenyl)-3-(3-(2-isopropyl-5-methylphenyl)-4-oxothiazolidin-2-ylidene)urea] | 50 to 100 | 50 to 100 | 0 to 80 | – | – | – |
| Cc1ccc(C(F)(F)F)c(N2C(=O)C(Cl)S/C2=N\C(=O)NCC(F)c2ccc(-c3ncn(-c4ccc(OC(F)(F)F)cc4)n3)cc2)c1 (stereo not drawn) [Compound H7] | 50 to 100 | 50 to 100 | 0 to 80 | – | – | – |
| COc1ccc(C(C)C)c(N2C(=O)CS/C2=N\C(=O)Nc2ccc(-c3ncn(-c4cccc(C(F)(F)F)c4)n3)cc2)c1 [Compound J324, (Z)-1-(3-(2-Isopropyl-5-methoxyphenyl)-4-oxothiazolidin-2-ylidene)-3-(4-(1-(3-(trifluoromethyl)phenyl)-1H-1,2,4-triazol-3-yl)phenyl)urea] | 50 to 100 | 50 to 100 | 0 to 80 | – | – | – |
| Cc1cc(-c2ncn(-c3ccc(S(=O)(=O)C(F)(F)F)cc3)n2)ccc1NC(=O)/N=C1\SCC(=O)N1c1cc(N(C)C)ccc1C(C)C [Compound J366, (Z)-1-(3-(5-(Dimethylamino)-2-isopropylphenyl)-4-oxothiazolidin-2-ylidene)-3-(2-methyl-4-(1-(4-((trifluoromethyl)sulfonyl)phenyl)-1H-1,2,4-triazol-3-yl)phenyl)urea] | – | – | – | 50 to 100 | 50 to 100 | 0 to 80 |
| CC(C)c1ccc(N(C)C)cc1N1C(=O)CS/C1=N\C(=O)Nc1ccc(-c2ncn(-c3cccc(C(F)(F)F)c3)n2)cc1F [Compound J153, (Z)-1-(3-(5-(Dimethylamino)-2-isopropylphenyl)-4-oxothiazolidin-2-ylidene)-3-(2-fluoro-4-(1-(3-(trifluoromethyl)phenyl)-1H-1,2,4-triazol-3-yl)phenyl)urea] | 50 to 100 | 50 to 100 | 0 to 80 | – | – | – |
| Cc1ccc(COCC(F)(F)F)c(N2C(=O)CS/C2=N\C(=O)Nc2ccc(-c3ncn(-c4ccc(OC(F)(F)F)cc4)n3)cc2Cl)c1 [Compound J194, (Z)-1-(2-Chloro-4-(1-(4-(trifluoromethoxy)phenyl)-1H-1,2,4-triazol-3-yl)phenyl)-3-(3-(5-methyl-2-((2,2,2-trifluoroethoxy)methyl)phenyl)-4-oxothiazolidin-2-ylidene)urea] | 50 to 100 | 50 to 100 | 0 to 80 | – | – | – |
| Cc1ccc(C(C)C)c(N2C(=O)C(Cl)S/C2=N\C(=O)Nc2ccc(-c3ncn(-c4ccc(OC(F)(F)F)cc4)n3)cc2F)c1 (stereo not drawn) [Compound J32, (Z)-1-(5-chloro-3-(2-isopropyl-5-methylphenyl)-4-oxothiazolidin-2-ylidene)-3-(2-fluoro-4-(1-(4-(trifluoromethoxy)phenyl)-1H-1,2,4-triazol-3-yl)phenyl)urea] | 50 to 100 | 50 to 100 | 0 to 80 | – | – | – |
